Here are results for three molecules from ChEMBL document CHEMBL1201862, “PubChem BioAssay data set” (2004).

One assay has as its target Troponin, cardiac muscle (Homo sapiens, UniProt P19429+P45379+P63316). As to the kind of experiment: Fluorescence-based biochemical high throughput dose response assay for activators of the calcium sensitivity of cardiac Regulated Thin Filaments (RTF). [Related pubchem assays (depositor defined):AID493008, AID493018, AID504382, AID504383]. In kind it is protein-complex assay.

The target in assay [1] is T1, E3 ubiquitin-protein ligase XIAP (Homo sapiens, UniProt P98170). In words: Counter Screen using XIAP-Bir3 for Chemical Antagonists of Bir1/2 domains of IAP-family anti-apoptotic proteins. [Related pubchem assays (depositor defined):AID1018, AID1449, AID1514, AID1638, AID1749, AID1750, AID488957, AID488963]. (Counterscreens check selectivity or assay interference.)
T1 sequence (P98170 whole entry): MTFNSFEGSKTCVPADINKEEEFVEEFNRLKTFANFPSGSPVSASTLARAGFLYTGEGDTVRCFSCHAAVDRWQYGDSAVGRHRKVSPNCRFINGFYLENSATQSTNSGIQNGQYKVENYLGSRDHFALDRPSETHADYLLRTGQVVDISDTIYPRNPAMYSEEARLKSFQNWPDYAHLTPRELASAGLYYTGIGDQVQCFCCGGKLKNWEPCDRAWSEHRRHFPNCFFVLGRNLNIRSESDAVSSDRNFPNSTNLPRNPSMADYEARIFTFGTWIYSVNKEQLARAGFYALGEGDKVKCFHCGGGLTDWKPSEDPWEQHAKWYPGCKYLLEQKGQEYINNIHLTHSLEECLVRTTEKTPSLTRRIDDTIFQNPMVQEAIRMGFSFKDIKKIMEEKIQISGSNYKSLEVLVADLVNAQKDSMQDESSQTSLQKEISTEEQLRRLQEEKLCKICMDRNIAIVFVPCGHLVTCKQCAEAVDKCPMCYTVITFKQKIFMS
In assay [2] the target is T1, E3 ubiquitin-protein ligase XIAP. As to the kind of experiment: small molecules displacing peptide from XIAP – biochemical, IAP family, fluorescence polarization (AID 1018). It counts as functional. A general note: In fluorescence polarisation assays a small probe gives low polarisation when free and higher when bound to something large.
In assay [3] the target is T2, Cannabinoid receptor 2 (Homo sapiens, UniProt P34972). As to the kind of experiment: SAR analysis of agonists of the Cannabinoid Receptor 2 using an Image-Based Assay - Set 2. [Related pubchem assays (depositor defined):AID1961, AID1965]. In kind it is functional.
T2 sequence (P34972 whole entry): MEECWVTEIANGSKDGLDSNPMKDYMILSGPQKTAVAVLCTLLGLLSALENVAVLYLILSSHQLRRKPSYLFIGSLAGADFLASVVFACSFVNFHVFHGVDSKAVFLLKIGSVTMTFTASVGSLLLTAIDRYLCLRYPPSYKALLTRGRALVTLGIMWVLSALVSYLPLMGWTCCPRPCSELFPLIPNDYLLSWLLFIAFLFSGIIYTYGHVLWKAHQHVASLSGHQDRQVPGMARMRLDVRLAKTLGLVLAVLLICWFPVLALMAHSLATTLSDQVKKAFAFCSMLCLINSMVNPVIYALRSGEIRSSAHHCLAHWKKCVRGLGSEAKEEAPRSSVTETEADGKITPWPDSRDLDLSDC
Assay [4] addresses T3, G-protein coupled receptor 35 (Homo sapiens, UniProt Q9HC97). As to the kind of experiment: SAR analysis of Antagonists of the GPR35 Receptor using an Image-Based Assay - Set 4. [Related pubchem assays (depositor defined):[…]]. In kind it is functional.
Assay [5] addresses T3, G-protein coupled receptor 35. As to the kind of experiment: SAR analysis of Agonists of the GPR35 Receptor using an Image-Based Assay - Set 3. [Related pubchem assays (depositor defined):AID1961, AID1965]. In kind it is functional.
Assay [6] deals with T2, Cannabinoid receptor 2. As to the kind of experiment: SAR analysis of antagonists of the Cannabinoid Receptor 2 using an Image-Based Assay - Set 2. [Related pubchem assays (depositor defined):AID1961, AID1965]. It counts as functional.
For assay [7], the target named is T4, Cannabinoid receptor 1 (Homo sapiens, UniProt P21554). As to the kind of experiment: SAR analysis of agonists of the Cannabinoid Receptor 1 using an Image-Based Assay - Set 3. [Related pubchem assays (depositor defined):AID1961, AID1965]. In kind it is functional.
T4 sequence (P21554 whole entry): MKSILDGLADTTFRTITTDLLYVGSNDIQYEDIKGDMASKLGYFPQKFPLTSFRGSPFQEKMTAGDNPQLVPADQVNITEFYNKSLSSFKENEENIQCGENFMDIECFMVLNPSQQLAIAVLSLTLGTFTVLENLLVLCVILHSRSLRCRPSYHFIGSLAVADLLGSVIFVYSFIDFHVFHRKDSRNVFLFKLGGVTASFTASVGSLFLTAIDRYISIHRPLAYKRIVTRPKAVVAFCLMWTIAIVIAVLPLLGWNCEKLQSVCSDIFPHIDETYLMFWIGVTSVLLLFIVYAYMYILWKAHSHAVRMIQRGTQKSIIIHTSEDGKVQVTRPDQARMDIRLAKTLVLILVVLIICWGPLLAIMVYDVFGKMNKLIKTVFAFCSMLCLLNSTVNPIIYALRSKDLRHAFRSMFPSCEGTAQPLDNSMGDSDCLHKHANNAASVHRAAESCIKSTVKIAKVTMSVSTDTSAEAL
The target in assay [8] is T4, Cannabinoid receptor 1. As to the kind of experiment: SAR analysis of antagonists of the Cannabinoid Receptor 1 using an Image-Based Assay - Set 3. [Related pubchem assays (depositor defined):AID1961, AID1965]. In kind it is functional.
Assay [9] addresses G-protein coupled receptor 55 (Homo sapiens, UniProt Q9Y2T6). In words: SAR analysis of selective Agonists of GPR55 using an Image-Based Assay - Set 2. [Related pubchem assays (depositor defined):AID1961, AID1965]. It counts as functional.

Active and inactive are the calls of the source.

T3 sequence (Q9HC97 whole entry): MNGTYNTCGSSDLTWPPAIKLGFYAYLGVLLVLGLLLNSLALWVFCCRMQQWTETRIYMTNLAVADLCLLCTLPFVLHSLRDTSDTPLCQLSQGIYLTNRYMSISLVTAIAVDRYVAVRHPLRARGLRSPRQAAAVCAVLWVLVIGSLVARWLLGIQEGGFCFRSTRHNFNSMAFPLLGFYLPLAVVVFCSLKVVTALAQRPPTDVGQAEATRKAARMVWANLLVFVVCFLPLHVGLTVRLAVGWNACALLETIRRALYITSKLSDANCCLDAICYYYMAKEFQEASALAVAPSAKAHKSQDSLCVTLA
G-protein coupled receptor 55, sequence (Q9Y2T6 whole entry): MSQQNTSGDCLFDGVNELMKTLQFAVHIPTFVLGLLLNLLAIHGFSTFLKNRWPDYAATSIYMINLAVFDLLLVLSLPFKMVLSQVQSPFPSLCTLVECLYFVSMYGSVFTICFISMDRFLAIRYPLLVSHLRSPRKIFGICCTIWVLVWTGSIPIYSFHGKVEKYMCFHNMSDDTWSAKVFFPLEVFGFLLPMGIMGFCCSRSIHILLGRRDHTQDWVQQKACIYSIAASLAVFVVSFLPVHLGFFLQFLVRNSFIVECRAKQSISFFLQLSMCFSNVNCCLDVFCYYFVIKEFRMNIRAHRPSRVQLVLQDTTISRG

For orientation: EC50 means the concentration needed to bring the measured effect to its halfway point. As for `O=C(/C=C/c1nc2ccccc2s1)N1CCCCCC1`, the EC50 on Troponin, cardiac muscle is > 71.5 µM (inactive).
The IC50 is the concentration needed to halve the response being measured. `COc1ccc(NC(=O)Cc2ccc(C)cc2)c([N+](=O)[O-])c1`: the values for the IC50 in assay [1] and in assay [2] were > 100 µM (inactive) and > 100 µM (not active), respectively.
With `CCOc1ccccc1N1CCN(C(=O)c2cc(S(=O)(=O)N(C)C)ccc2N2CCCC2)CC1`, the EC50 (at Cannabinoid receptor 2 [3]; in assay [5]; on Cannabinoid receptor 1 [7]; in [9]) was > 32 µM (inactive) throughout. Moreover, the IC50 (in assay [4]; at Cannabinoid receptor 2 [6]; on Cannabinoid receptor 1 [8]) was > 32 µM (inactive) each time.
